Laboratory results taken from patent US12686652B2, “Methods of increasing irrigation water and fertilizer delivery to soil using formic acid and formate salts, making a formate salt from carbon dioxide, and generating a carbon credit” (Deerpoint Group, Inc., priority 2023, dated 2026).
“And” between values parts separate entries of the source, which are not always exact repeats. Identical values can stand only once. Like-named read-outs stand apart in the source and are kept apart here.

Legend:
[1] = ICP and flow injection (FIA) analyses of solutions passed through soil columns, second farm; conditions: single soil sample
Source text: FIA was used to determine the content of the listed anion (e.g., NO3, Cl, PO4, etc.). Results are presented from a single soil sample.

[2] = first pass
Source text: The irrigation water at the second farm was from a different source than the first farm.

[3] = for Drainage Rate: Time (50 g), percentage relative to irrigation water / Drainage Rate: liquid eluted at 60 mins, percentage relative to irrigation water / Drainage Rate: liquid eluted at 120 mins, percentage relative to irrigation water / Liquid Eluted after 60 min / Liquid Eluted after 120 min / Time (50 g of liquid, in min) / More liquid eluted by mass than the irrigation water: first farm soil; for Liquid Eluted after 60 min / Liquid Eluted after 120 min / Time (50 g of liquid, in min): Ca formate 22 ppm by moles, HCO2H 0.33% by weight, average of two columns
Source text: The objective was to investigate the behavior of different irrigation water treatments and determine the relative amounts of water that passed through the soil columns. The column retention times reflect the rate at which the liquid passes through the soil. Understanding these retention times provides insights about the transport and movement of irrigation water (and any fertilizers dissolved therein) through the soil, which has implications for the volume of water passing into and through the root zone, nutrient availability to crops, leaching of contaminants, and overall soil health.
The data in Table 1 is for the average of the two soil samples.

[4] = first farm soil, duplicate columns A and B
[5] = cited from earlier work
[6] = 1st pass, Alternating = formic acid pass
[7] = 2nd pass, Alternating = calcium formate pass
[8] = 3rd pass, Alternating = formic acid pass
[9] = 4th pass, Alternating = calcium formate pass
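For Mn in solution passed through soil column (ICP) in this document: eluate from PVC columns holding 100 g of dry ground farm soil, analysed by ICP-OES for element content after the solution had drained through, irrigation water measured as received for reference.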

SMILES: O=CO [HCO2H, formic acid]
- B in solution passed through soil column (ICP) [1, 6]: 0.6 ppm
- Ca in solution passed through soil column (ICP) [1, 6]: 260.7 ppm
- Cl^− in solution passed through soil column (FIA) [1, 6]: 304.0 ppm
- K in solution passed through soil column (ICP) [1, 6]: 9.7 ppm
- Mg in solution passed through soil column (ICP) [1, 6]: 69.3 ppm
- NO3^− in solution passed through soil column (FIA) [1, 6]: 0.0 ppm
- Na in solution passed through soil column (ICP) [1, 6]: 345.5 ppm
- P in solution passed through soil column (ICP) [1, 6]: 0.7 ppm
- S in solution passed through soil column (ICP) [1, 6]: 43.8 ppm
- Si in solution passed through soil column (ICP) [1, 6]: 31.8 ppm
- B in solution passed through soil column (ICP) [1, 7]: 0.5 ppm
- Ca in solution passed through soil column (ICP) [1, 7]: 312.7 ppm
- Cl^− in solution passed through soil column (FIA) [1, 7]: 102.8 ppm
- K in solution passed through soil column (ICP) [1, 7]: 9.0 ppm
- Mg in solution passed through soil column (ICP) [1, 7]: 81.3 ppm
- NO3^− in solution passed through soil column (FIA) [1, 7]: 0.0 ppm
- Na in solution passed through soil column (ICP) [1, 7]: 175.2 ppm
- P in solution passed through soil column (ICP) [1, 7]: 1.9 ppm
- S in solution passed through soil column (ICP) [1, 7]: 11.4 ppm
- Si in solution passed through soil column (ICP) [1, 7]: 43.1 ppm
- B in solution passed through soil column (ICP) [1, 8]: 0.4 ppm
- Ca in solution passed through soil column (ICP) [1, 8]: 337.4 ppm
- Cl^− in solution passed through soil column (FIA) [1, 8]: 91.7 ppm
- K in solution passed through soil column (ICP) [1, 8]: 9.9 ppm
- Mg in solution passed through soil column (ICP) [1, 8]: 84.0 ppm
- NO3^− in solution passed through soil column (FIA) [1, 8]: 0.0 ppm
- Na in solution passed through soil column (ICP) [1, 8]: 79.9 ppm
- P in solution passed through soil column (ICP) [1, 8]: 5.8 ppm
- S in solution passed through soil column (ICP) [1, 8]: 8.0 ppm
- Si in solution passed through soil column (ICP) [1, 8]: 51.9 ppm
- B in solution passed through soil column (ICP) [1, 9]: 0.3 ppm
- Ca in solution passed through soil column (ICP) [1, 9]: 286.6 ppm
- Cl^− in solution passed through soil column (FIA) [1, 9]: 92.9 ppm
- K in solution passed through soil column (ICP) [1, 9]: 10.6 ppm
- Mg in solution passed through soil column (ICP) [1, 9]: 65.5 ppm
- NO3^− in solution passed through soil column (FIA) [1, 9]: 0.0 ppm
- Na in solution passed through soil column (ICP) [1, 9]: 66.1 ppm
- P in solution passed through soil column (ICP) [1, 9]: 6.4 ppm
- S in solution passed through soil column (ICP) [1, 9]: 8.3 ppm
- Si in solution passed through soil column (ICP) [1, 9]: 65.2 ppm
- Liquid retained by the soil samples on average ([2]; dry soil, second farm (FIG. 3)): 41 to 42 mL
- Time of first appearance of liquid from the columns on average ([2]; dry soil, second farm (FIG. 3)): < 20 min
- Amount of liquid passed through the columns compared with irrigation water at the same lengths of time ([2]; second farm, from 20-30 minutes up to 240 minutes): more than three times as much
- Drainage Rate: Time (50 g), percentage relative to irrigation water ([3]; 1st pass): 50.0%
- Drainage Rate: liquid eluted at 60 mins, percentage relative to irrigation water ([3]; 1st pass): 214%
- Drainage Rate: liquid eluted at 120 mins, percentage relative to irrigation water ([3]; 1st pass): 168%
- Liquid Eluted after 60 min ([3]; 1st pass): 34.1 g
- Liquid Eluted after 120 min ([3]; 1st pass): 59.7 g
- Time (50 g of liquid, in min) ([3]; 1st pass): 90 min
- Drainage Rate: Time (50 g), percentage relative to irrigation water ([3]; 2nd pass): 50.0%
- Drainage Rate: liquid eluted at 60 mins, percentage relative to irrigation water ([3]; 2nd pass): 206%
- Drainage Rate: liquid eluted at 120 mins, percentage relative to irrigation water ([3]; 2nd pass): 198%
- Liquid Eluted after 60 min ([3]; 2nd pass): 43.9 g
- Liquid Eluted after 120 min ([3]; 2nd pass): 78.9 g
- Time (50 g of liquid, in min) ([3]; 2nd pass): 90 min
- Drainage Rate: Time (50 g), percentage relative to irrigation water ([3]; 3rd pass): 50.0%
- Drainage Rate: liquid eluted at 60 mins, percentage relative to irrigation water ([3]; 3rd pass): 189%
- Drainage Rate: liquid eluted at 120 mins, percentage relative to irrigation water ([3]; 3rd pass): 189%
- Liquid Eluted after 60 min ([3]; 3rd pass): 36.0 g
- Liquid Eluted after 120 min ([3]; 3rd pass): 68.3 g
- Time (50 g of liquid, in min) ([3]; 3rd pass): 90 min
- Drainage Rate: Time (50 g), percentage relative to irrigation water ([3]; 4th pass): 50.0%
- Drainage Rate: liquid eluted at 60 mins, percentage relative to irrigation water ([3]; 4th pass): 207%
- Drainage Rate: liquid eluted at 120 mins, percentage relative to irrigation water ([3]; 4th pass): 183%
- Liquid Eluted after 60 min ([3]; 4th pass): 40.5 g
- Liquid Eluted after 120 min ([3]; 4th pass): 69.5 g
- Time (50 g of liquid, in min) ([3]; 4th pass): 90 min
- Liquid retained by the soil samples on average ([3]; first pass, dry soil, first farm, 100 ml added (FIG. 1)): about 36 ml
- More liquid eluted by mass than the irrigation water ([3]; first pass): 170-210%
- More liquid eluted by mass than the irrigation water ([3]; fourth pass): 180-210%
- More liquid eluted by mass than the irrigation water ([3]; second pass): 200-210%
- More liquid eluted by mass than the irrigation water ([3]; third pass): ~ 190%
- B in solution passed through soil column (ICP) ([4]; 1st pass): 4.34 ppm and 4.25 ppm
- Ca in solution passed through soil column (ICP) ([4]; 1st pass): 268.8 ppm and 261.2 ppm
- K in solution passed through soil column (ICP) ([4]; 1st pass): 19.52 ppm and 18.52 ppm
- Mg in solution passed through soil column (ICP) ([4]; 1st pass): 107.6 ppm and 103.1 ppm
- Mn in solution passed through soil column (ICP) ([4]; 1st pass): 4.40 ppm and 4.25 ppm
- Na in solution passed through soil column (ICP) ([4]; 1st pass): 111.2 ppm and 109.8 ppm
- P in solution passed through soil column (ICP) ([4]; 1st pass): 1.06 ppm and 0.55 ppm
- S in solution passed through soil column (ICP) ([4]; 1st pass): 83.5 ppm and 74.5 ppm
- Si in solution passed through soil column (ICP) ([4]; 1st pass): 31.3 ppm and 30.9 ppm
- B in solution passed through soil column (ICP) ([4]; 2nd pass): 2.42 ppm and 2.41 ppm
- Ca in solution passed through soil column (ICP) ([4]; 2nd pass): 173.7 ppm and 205.0 ppm
- K in solution passed through soil column (ICP) ([4]; 2nd pass): 15.36 ppm and 17.82 ppm
- Mg in solution passed through soil column (ICP) ([4]; 2nd pass): 69.7 ppm and 79.2 ppm
- Mn in solution passed through soil column (ICP) ([4]; 2nd pass): 3.32 ppm and 3.98 ppm
- Na in solution passed through soil column (ICP) ([4]; 2nd pass): 53.9 ppm and 49.3 ppm
- P in solution passed through soil column (ICP) ([4]; 2nd pass): 1.01 ppm and 0.73 ppm
- S in solution passed through soil column (ICP) ([4]; 2nd pass): 22.8 ppm and 22.1 ppm
- Si in solution passed through soil column (ICP) ([4]; 2nd pass): 34.1 ppm and 40.9 ppm
- B in solution passed through soil column (ICP) ([4]; 3rd pass): 2.09 ppm and 1.82 ppm
- Ca in solution passed through soil column (ICP) ([4]; 3rd pass): 167.8 ppm and 176.4 ppm
- K in solution passed through soil column (ICP) ([4]; 3rd pass): 14.81 ppm and 16.46 ppm
- Mg in solution passed through soil column (ICP) ([4]; 3rd pass): 66.6 ppm and 67.2 ppm
- Mn in solution passed through soil column (ICP) ([4]; 3rd pass): 5.00 ppm and 5.23 ppm
- Na in solution passed through soil column (ICP) ([4]; 3rd pass): 36.5 ppm and 31.2 ppm
- P in solution passed through soil column (ICP) ([4]; 3rd pass): 1.09 ppm and 0.90 ppm
- S in solution passed through soil column (ICP) ([4]; 3rd pass): 13.4 ppm and 11.5 ppm
- Si in solution passed through soil column (ICP) ([4]; 3rd pass): 46.9 ppm and 49.9 ppm
- B in solution passed through soil column (ICP) ([4]; 4th pass): 0.79 ppm and 0.73 ppm
- Ca in solution passed through soil column (ICP) ([4]; 4th pass): 130.3 ppm and 140.7 ppm
- K in solution passed through soil column (ICP) ([4]; 4th pass): 13.34 ppm and 15.64 ppm
- Mg in solution passed through soil column (ICP) ([4]; 4th pass): 50.6 ppm and 52.5 ppm
- Mn in solution passed through soil column (ICP) ([4]; 4th pass): 4.46 ppm and 4.84 ppm
- Na in solution passed through soil column (ICP) ([4]; 4th pass): 16.6 ppm and 16.4 ppm
- P in solution passed through soil column (ICP) ([4]; 4th pass): 1.33 ppm and 1.63 ppm
- S in solution passed through soil column (ICP) ([4]; 4th pass): 3.7 ppm and 3.6 ppm
- Si in solution passed through soil column (ICP) ([4]; 4th pass): 34.1 ppm and 35.3 ppm

SMILES: [Fe+2] [Fe^+2]
- Solubility with anion CO3^−2 [5]: VSS (VSS means very slightly soluble (20-2,000 ppm))
- Solubility with anion CO3^−2 ([5]; listed as Fe^+3): I (I means insoluble (<20 ppm))
- Solubility with anion Cl^− ([5]; anion Cl^−): S (S means soluble (over 5,000 ppm))
- Solubility with anion HCO3^− [5]: SS (SS means slightly soluble (2,000 to 5,000 ppm))
- Solubility with anion HCO3^− ([5]; listed as Fe^+3): I (I means insoluble (<20 ppm))
- Solubility with anion NO3^− ([5]; anion NO3^−): S (S means soluble (over 5,000 ppm))
- Solubility with anion OH^− [5]: VSS (VSS means very slightly soluble (20-2,000 ppm))
- Solubility with anion OH^− ([5]; listed as Fe^+3): I (I means insoluble (<20 ppm))
- Solubility with anion PO4^−3 ([5]; anion PO4^−3): I (I means insoluble (<20 ppm))
- Solubility with anion SO4^−2 ([5]; anion SO4^−2): S (S means soluble (over 5,000 ppm))
- Solubility with anion S^−2 ([5]; anion S^−2): I (I means insoluble (<20 ppm))
